Among the data in US20230026271A1, “Piperazine Compounds for Inhibiting CPS1” (Eisai R&D Management Co., Ltd., priority 2019, published 2023) are IC50 values, retold here.

The target of this assay is T1, CPS1 (Homo sapiens, UniProt P31327).
T1 construct: The full length, human CPS1 gene was cloned into pFastBac HTA; His6 (from the pFastBac HTA vector); made in house; host or cells: SF21 insect cells (baculovirus, Bac-to-bac)
T1 sequence (P31327 39-1500): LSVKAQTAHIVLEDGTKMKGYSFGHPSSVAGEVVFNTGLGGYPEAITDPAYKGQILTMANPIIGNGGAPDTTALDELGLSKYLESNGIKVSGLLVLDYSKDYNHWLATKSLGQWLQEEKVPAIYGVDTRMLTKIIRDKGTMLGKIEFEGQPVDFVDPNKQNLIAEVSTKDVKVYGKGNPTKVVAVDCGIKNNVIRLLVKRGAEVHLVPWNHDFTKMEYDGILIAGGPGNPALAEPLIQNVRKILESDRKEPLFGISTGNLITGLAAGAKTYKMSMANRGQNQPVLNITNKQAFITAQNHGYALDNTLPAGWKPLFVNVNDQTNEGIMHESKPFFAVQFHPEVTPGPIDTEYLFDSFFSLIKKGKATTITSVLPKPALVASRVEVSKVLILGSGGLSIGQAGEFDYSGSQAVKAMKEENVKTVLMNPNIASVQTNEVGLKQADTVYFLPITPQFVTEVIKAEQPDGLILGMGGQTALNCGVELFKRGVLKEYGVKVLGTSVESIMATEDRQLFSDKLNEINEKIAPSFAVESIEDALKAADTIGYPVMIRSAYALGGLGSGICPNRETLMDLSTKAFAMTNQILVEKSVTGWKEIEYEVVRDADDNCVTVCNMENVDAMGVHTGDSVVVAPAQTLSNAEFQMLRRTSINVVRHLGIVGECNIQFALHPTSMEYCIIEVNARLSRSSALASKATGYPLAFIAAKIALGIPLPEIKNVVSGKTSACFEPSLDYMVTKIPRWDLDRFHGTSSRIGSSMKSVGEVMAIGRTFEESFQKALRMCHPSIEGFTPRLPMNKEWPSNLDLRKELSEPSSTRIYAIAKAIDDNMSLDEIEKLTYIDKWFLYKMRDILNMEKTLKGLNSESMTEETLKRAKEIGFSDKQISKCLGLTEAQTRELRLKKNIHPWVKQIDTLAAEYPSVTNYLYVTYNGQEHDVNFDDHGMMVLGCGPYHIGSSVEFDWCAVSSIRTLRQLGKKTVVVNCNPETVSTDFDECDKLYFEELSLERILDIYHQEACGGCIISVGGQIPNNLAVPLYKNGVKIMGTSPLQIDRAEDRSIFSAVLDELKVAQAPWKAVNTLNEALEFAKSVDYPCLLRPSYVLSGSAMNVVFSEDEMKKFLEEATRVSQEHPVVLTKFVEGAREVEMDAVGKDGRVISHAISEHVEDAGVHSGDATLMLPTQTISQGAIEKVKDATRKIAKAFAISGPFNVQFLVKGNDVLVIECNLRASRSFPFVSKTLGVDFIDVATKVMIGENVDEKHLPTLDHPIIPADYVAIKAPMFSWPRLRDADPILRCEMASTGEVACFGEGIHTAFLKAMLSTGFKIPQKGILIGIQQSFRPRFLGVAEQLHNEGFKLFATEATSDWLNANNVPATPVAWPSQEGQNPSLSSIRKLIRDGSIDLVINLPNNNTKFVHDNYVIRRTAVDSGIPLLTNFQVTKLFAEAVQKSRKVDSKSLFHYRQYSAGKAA
Kind of assay: ADP-Glo endpoint assay measuring the ATPase activity of CPS1. To be noted: geometric mean of a minimum of two values; 50 nM CPS1, 10 μM ATP, 0.2 mM NAG, 60 min at room temperature; read-out: ADPGlo IC50. It is filed as biochemical. The procedure: CPS1 was expressed and purified from SF21 insect cells. The full length, human CPS1 gene was cloned into pFastBac HTA and baculovirus was generated using the Bac-to-bac expression system from Invitrogen. P3 virus was used to infect SF21 insect cells at a density of 1.5E6 cells/mL at an MOI of 2. Cells were harvested by centrifugation after 60 hrs and the cell pellet resuspended in lysis buffer (50 mM glycyl glycine pH 7.4, 20 mM KCl, 1 mM TCEP, 10% glycerol and 20 mM imidazole with Roche protease inhibitor tablet) before being lysed with 40 strokes of a Dounce homogenizer on ice. The insoluble fraction of the lysate was then cleared by centrifugation at 30,000 rpm for 30 min. 40 mL of supernatant was mixed with 2 mL of Ni NTA beads for 45 min at 4° C. in a 50 mL conical tube.
The beads were washed with 40 mL of wash buffer (50 mM glycyl glycine pH 7.4, 500 mM NaCl, 1 mM TCEP, 10% glycerol and 50 mM imidazole) by centrifugation and resuspension of the beads three times. Bound CPS1 protein was eluted in 6 mL of elution buffer (50 mM glycyl glycine pH 7.4, 500 mM NaCl, 1 mM TCEP, 10% glycerol and 250 mM imidazole) three times. Elution fractions were combined and concentrated using an Amicon Ultra centrifugation filter with a 10,000 molecular weight cut off. Imidazole was removed by repeated concentration and resuspension in storage buffer in the filter device (50 mM glycyl glycine pH 7.4, 500 mM NaCl, 1 mM TCEP and 20% glycerol). CPS1 was concentrated to a final concentration of ˜3 mg/mL before being aliquoted, flash frozen in liquid nitrogen and stored at −80° C.
CPS1 activity was measured and compounds profiled in an endpoint assay measuring the ATPase activity of CPS1 using the ADP-Glo kit from Promega. 50 nM CPS1 was incubated alone or with varying amounts of tested compound from DMSO stocks in assay buffer (50 mM HEPES pH 7.0, 12.5 mM KHCO3, 1.5 mM (NH4)2SO3, 5 mM MgCl2, 50 mM KCl, 1 mM TCEP, 0.01% TritonX 100, 0.0025% BSA and 0.2 mM NAG) for 20 min in a 3 μL volume in a 384-well plate (Corning Cat#3820). The final concentration of DMSO was 0.04%. The reaction was initiated by the addition of 10 μM ATP, bringing the final volume to 6 μL. After 60 min at room temperature, the reaction was terminated with 3 μL ADP-Glo reagent and incubated at room temperature for 30 min. 3 μL of kinase detection reagent was then added and luminescent signal measured on an Envision plate reader after 30 min.
A general note: ADP-Glo first removes unused ATP, then detects ADP through luciferase.

Molecules are shown by their SMILES.

As for `COc1ccc(C(=O)N2C[C@@H](C)N(C(=O)c3ccc(OC(F)F)cc3F)[C@H](C)C2)c(F)c1` [Compound 33, ((3R,5R)-4-(4-(difluoromethoxy)-2-fluorobenzoyl)-3,5-dimethylpiperazin-1-yl)(2-fluoro-4-methoxyphenyl)methanone], the IC50 amounted to 2.54 µM.

As to `COc1ccc(C(=O)N2C[C@@H](C)N(C(=O)c3ccc(OC)c(F)c3F)[C@H](C)C2)c(F)c1` [Compound 34, ((3R,5R)-4-(2,3-Difluoro-4-methoxybenzoyl)-3,5-dimethylpiperazin-1-yl)(2-fluoro-4-methoxyphenyl)methanone], the concentration for half-maximal inhibition (IC50) turned out to be 0.387 µM.

On to `COc1ccc(C(=O)N2[C@H](C)CN(C(=O)c3ccc4c(c3)NC(=O)CO4)C[C@H]2C)c(F)c1` [Compound 35, 6-((3R,5R)-4-(2-Fluoro-4-methoxybenzoyl)-3,5-dimethylpiperazine-1-carbonyl)-2H-benzo[b][1,4]oxazin-3(4H)-one], for which the IC50 worked out at 7.97 µM.

As to `COc1ccc(C(=O)N2[C@H](C)CN(C(=O)c3c[nH]c4c(Cl)cccc34)C[C@H]2C)c(F)c1` [Compound 36, (7-Chloro-1H-indol-3-yl)((3R,5R)-4-(2-fluoro-4-methoxybenzoyl)-3,5-dimethylpiperazin-1-yl)methanone], the IC50 was 1.15 µM.

In the case of `COc1ccc(C(=O)N2[C@H](C)CN(C(=O)c3cnc4cc[nH]c4c3)C[C@H]2C)c(F)c1` [Compound 37, ((2R,6R)-2,6-Dimethyl-4-(1H-pyrrolo[3,2-b]pyridine-6-carbonyl)piperazin-1-yl)(2-fluoro-4-methoxyphenyl)methanone], the IC50 is 2.51 µM.

For the compound `COc1ccc(C(=O)N2[C@H](C)CN(C(=O)c3ccc4nc[nH]c4c3)C[C@H]2C)c(F)c1` [Compound 38, ((2R,6R)-4-(1H-Benzo[d]imidazole-5-carbonyl)-2,6-dimethylpiperazin-1-yl)(2-fluoro-4-methoxyphenyl)methanone], the IC50 came out at 4.91 µM.

Take `COc1ccc(C(=O)N2C[C@@H](C)N(C(=O)c3ccc(-c4cnco4)cc3)[C@H](C)C2)c(F)c1` [Compound 39, ((3R,5R)-3,5-Dimethyl-4-(4-(oxazol-5-yl)benzoyl)piperazin-1-yl)(2-fluoro-4-methoxyphenyl)methanone]: the IC50 amounted to 3.58 µM.

For `COc1ccc(C(=O)N2C[C@@H](C)N(C(=O)c3ccc(-c4ncc[nH]4)cc3)[C@H](C)C2)c(F)c1` [Compound 40, ((3R,5R)-4-(4-(1H-imidazol-2-yl)benzoyl)-3,5-dimethylpiperazin-1-yl)(2-fluoro-4-methoxyphenyl)methanone], the IC50 is 7.53 µM.

In the case of `COc1ccc(C(=O)N2C[C@@H](C)N(C(=O)c3ccc(-n4cnnn4)cc3)[C@H](C)C2)c(F)c1` [Compound 41, ((3R,5R)-4-(4-(1H-Tetrazol-1-yl)benzoyl)-3,5-dimethylpiperazin-1-yl)(2-fluoro-4-methoxyphenyl)methanone], the IC50 was 10.4 µM.

In the case of `COc1ccc(C(=O)N2C[C@@H](C)N(C(=O)c3ccc(CCO)cc3)[C@H](C)C2)c(F)c1` [Compound 42, ((2R,6R)-4-(2-Fluoro-4-methoxybenzoyl)-2,6-dimethylpiperazin-1-yl)(4-(2-hydroxyethyl)phenyl)methanone], the IC50 is 10.7 µM.

`COc1ccc(C(=O)N2C[C@@H](C)N(C(=O)c3ccc4cc(C)[nH]c4c3)[C@H](C)C2)c(F)c1` [Compound 43, ((3R,5R)-3,5-Dimethyl-4-(2-methyl-1H-indole-6-carbonyl)piperazin-1-yl)(2-fluoro-4-methoxyphenyl)methanone]: the 50% inhibitory concentration (IC50) came to 11.4 µM.

Take `COc1ccc(C(=O)N2CCN(C(=O)c3ccc(OC)cc3F)CC2)c(F)c1` [Compound 44, Piperazine-1,4-diylbis((2-fluoro-4-methoxyphenyl)methanone)]: the IC50 was 7.78 µM.

For the compound `COc1ccc(C(=O)N2CCN(C(=O)c3ccc(OC)cc3F)C(C)C2)c(F)c1` (centres unmarked) [Compound 45, (2-Methylpiperazine-1,4-diyl)bis((2-fluoro-4-methoxyphenyl)methanone)], the IC50 was 5.21 µM.

As to `COc1ccc(C(=O)N2CCN(C(=O)c3ccc(OC)cc3F)[C@H](C)C2)c(F)c1` [Compound 46, (R)-(2-methylpiperazine-1,4-diyl)bis((2-fluoro-4-methoxyphenyl)methanone)], the IC50 was found to be 6.04 µM.

For the compound `COc1ccc(C(=O)N2C[C@H](C)N(C(=O)c3ccc(OC)cc3F)C[C@H]2C)c(F)c1` [Compound 47, ((2S,5R)-2,5-dimethylpiperazine-1,4-diyl)bis((2-fluoro-4-methoxyphenyl)methanone)], the IC50 was 0.714 µM.

Consider `COc1ccc(C(=O)N2CCN(C(=O)c3ccc(OC)cc3F)C(C)(C)C2)c(F)c1` [Compound 48, (2,2-Dimethylpiperazine-1,4-diyl)bis((2-fluoro-4-methoxyphenyl)methanone)], for which the IC50 was 4.68 µM.

For `COc1ccc(C(=O)N2C[C@H](C)N(C(=O)c3ccc(OC)cc3F)[C@@H](C)C2)c(F)c1` [Compound 49, ((2S,6S)-2,6-Dimethylpiperazine-1,4-diyl)bis((2-fluoro-4-methoxyphenyl)methanone)], the IC50 turned out to be 6.56 µM.

Consider `COc1ccc(C(=O)N2C[C@@H](C)N(C(=O)c3ccc(OC)cc3F)[C@@H](C)C2)c(F)c1` [Compound 50, ((2R,6S)-2,6-Dimethylpiperazine-1,4-diyl)bis((2-fluoro-4-methoxyphenyl)methanone)], for which the 50% inhibitory concentration (IC50) came out at 6.98 µM.

Consider `COc1ccc(C(=O)N2CCN(C(=O)c3ccc(OC)cc3F)[C@@H](C)C2)c(F)c1` [Compound 51, (S)-(2-Methylpiperazine-1,4-diyl)bis((2-fluoro-4-methoxyphenyl)methanone)], for which the concentration for half-maximal inhibition (IC50) was 2.78 µM.

`COc1ccc(OC)c2[nH]c(C(=O)N3[C@H](C)CN(C(=O)c4ccc5cc[nH]c5c4)C[C@H]3C)cc12` [Compound 52, ((2R,6R)-4-(1H-indole-6-carbonyl)-2,6-dimethylpiperazin-1-yl)(4,7-dimethoxy-1H-indol-2-yl)methanone]: the IC50 is 0.193 µM.

As a reminder, the IC50 is the concentration needed to halve the response being measured.
